Measurements reported in PubChem BioAssay (NCI).
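Each compound was tested at five concentrations against cells in 96-well plates for 48 hours. At the GI50, growth is halved. TGI is the concentration that stops growth completely.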

Key:
Test in all cases: DTP human tumour cell line panel, 48 h
A498 renal = test system: A498 renal
IGROV1 ovarian = test system: IGROV1 ovarian
K-562 leukemia = test system: K-562 leukemia
MDA-MB-231 breast = test system: MDA-MB-231 breast
MDA-MB-435 = test system: MDA-MB-435
NCI/ADR-RES ovarian = test system: NCI/ADR-RES ovarian
OVCAR-8 ovarian = test system: OVCAR-8 ovarian
RPMI-8226 leukemia = test system: RPMI-8226 leukemia
UO-31 renal = test system: UO-31 renal
SNB-75 CNS = test system: SNB-75 CNS
UACC-62 melanoma = test system: UACC-62 melanoma

SMILES | TGI (A498 renal) | TGI (IGROV1 ovarian) | TGI (K-562 leukemia) | TGI (MDA-MB-231 breast) | TGI (MDA-MB-435) | TGI (NCI/ADR-RES ovarian) | TGI (OVCAR-8 ovarian) | TGI (RPMI-8226 leukemia) | TGI (UO-31 renal) | GI50 (A498 renal) | GI50 (K-562 leukemia) | GI50 (MDA-MB-231 breast) | GI50 (MDA-MB-435) | GI50 (NCI/ADR-RES ovarian) | GI50 (RPMI-8226 leukemia) | GI50 (SNB-75 CNS) | TGI (SNB-75 CNS) | GI50 (UACC-62 melanoma) | TGI (UACC-62 melanoma) | GI50 (UO-31 renal)
O=C(NC(Nc1ccc(F)c(Cl)c1)(C(F)(F)F)C(F)(F)F)C(C(F)(F)F)C(F)(F)F | > 100 µM | 33.4 µM | 77.1 µM | 78.9 µM | > 100 µM | 63.4 µM | > 100 µM | 66.8 µM | 59.1 µM | – | – | – | – | – | – | – | – | – | – | –
O=C(CCN1CCCC1)Nc1ccc2c(NCCCc3ccccc3)c3ccccc3nc2c1 | 3.14 µM | – | 3.36 µM | 2.3 µM | 2.82 µM | 71.9 µM | – | 3.63 µM | 3.16 µM | 1.31 µM | 0.945 µM | 1.02 µM | 1.46 µM | 15.1 µM | 0.611 µM | 1.17 µM | 2.41 µM | 1.54 µM | 2.93 µM | 1.6 µM
CC1(C)CCc2c(c(N=Nc3ccccc3)c3ccccc3c2O)O1 | 44.1 µM | > 100 µM | > 100 µM | 67 µM | 83.5 µM | > 100 µM | > 100 µM | > 100 µM | 60.3 µM | – | – | – | – | – | – | – | – | – | > 100 µM | –
O=C(/C=C/c1ccc(O)c(O)c1)OCCOC(=O)/C=C/c1ccc(O)c(O)c1 | > 100 µM | > 100 µM | 63.2 µM | > 100 µM | 98 µM | > 100 µM | > 100 µM | > 100 µM | 47.5 µM | – | – | – | – | – | – | – | – | – | 35.1 µM | –
CC1=C(C(=O)OC(C)C)C(c2ccccc2[N+](=O)[O-])C(C(=O)OC(CO[N+](=O)[O-])CO[N+](=O)[O-])=C(C)N1 (configuration not stated) | – | 27.9 µM | 71.6 µM | 35.4 µM | 13.2 µM | 12.2 µM | 22 µM | > 100 µM | 16.2 µM | – | – | – | – | – | – | – | 8.19 µM | – | 8.14 µM | –
N#Cc1c(NC(=S)NCc2ccccc2)sc2c1CCN(N1CCc3c(sc(NC(=S)NCc4ccccc4)c3C#N)C1)C2 | > 100 µM | > 100 µM | > 100 µM | > 100 µM | > 100 µM | > 100 µM | > 100 µM | – | > 100 µM | – | – | – | – | – | – | – | > 100 µM | – | > 100 µM | –
Nc1c(C(=O)c2ccccc2)[nH]c(NCc2ccccc2)c1C(=S)Nc1ccccc1 | > 100 µM | > 100 µM | > 100 µM | > 100 µM | > 100 µM | > 100 µM | > 100 µM | – | > 100 µM | – | – | – | – | – | – | – | > 100 µM | – | > 100 µM | –
